Earlier results in US12678407B2 (HANMI PHARM. CO., LTD., priority 2020, dated 2026).

Conditions: according to FDA Clinical Pharmacology Biopharmaceutics Review

bioavailability [%]	Compound
78	N[C@@H](CC(=O)N1CCn2c(nnc2C(F)(F)F)C1)Cc1cc(F)c(F)cc1F [sitagliptin, (R)-3-amino-1-(3-(trifluoromethyl)-5,6-dihydro-[1,2,4]triazole[4,3-a]pyrazin-7(8H)-yl)-4-(2,4,5-trifluorophenyl)butan-1-one]
87	CCOc1ccc(Cc2cc([C@@H]3O[C@H](CO)[C@@H](O)[C@H](O)[C@H]3O)ccc2Cl)cc1 [dapagliflozin, (2S,3R,4R,5S,6R)-2-[4-chloro-3-(4-ethoxybenzyl)phenyl]-6-(hydroxymethyl)tetrahydro-2H-pyran-3,4,5-triol]
